Measured values reported in patent US20250215016A1, “ISOXAZOLE-HETEROCYCLIC DERIVATIVE, PHARMACEUTICAL COMPOSITION AND USE” (SHANGHAI SIMR BIOTECHNOLOGY CO., LTD, priority 2022, published 2025).
pKi: −log10 of the molar value.

Key:
[1] = biological target: human α5β3γ2 receptor (α5-GABAA receptor) (Homo sapiens (Human), UniProt P18507+P31644); assay: Radioligand (3H-flunitrazepam) competition binding assay, BZD site; conditions: 3H-flunitrazepam 1 nM; HEK293 membranes expressing human α5β3γ2
Description: α, β and γ subunits are essential for the formation of a complete functional GABAA receptor. In this example, HEK293 cell strains stably expressing human α5-GABAA receptor (comprising α5β3γ2 subunit) and α2-GABAA receptor (comprising α2β3γ2 subunit) were constructed and screened, respectively, by liposome transfection method (Felgner, P. L., et al., Proceedings of the National Academy of Sciences, 1987, 84:7413-7417). The specific subunit protein sequences are as follows: α5 subunit (protein sequence can be found in GenBank accession number: NM_000810.3); α2 subunit (protein sequence can be found in GenBank accession number: NM_000807.4); β3 subunit (protein sequence can be found in GenBank accession number: NM_000814.5); γ2 subunit (protein sequence can be found in GenBank accession number: NM_000816.3).
(§1) The above cell lines were subcultured. Amplification of α5β3γ2-HEK293 and α2β3γ2-HEK293 cells was used to test the affinity of the compounds to benzodiazepine site (BZD) of the GABAA receptor. During the passage of α5β3γ2-HEK293 cells, some of the suspended cells were spread on a glass slide pretreated with Poly-D-Lysine for electrophysiological testing.
Flunitrazepam is a non-specific reagent that binds to the BZD site efficiently. The affinity of the compounds to the BZD sites of the human α5β3γ2 and α2β3γ2 receptors can be determined by competing the compound with ^3H-flunitrazepam (isotope ^3H-labeled flunitrazepam) for binding to these two receptors.
Membrane preparation: HEK293 cells stably expressing human α5β3γ2 receptor or α2β3γ2 receptor were collected, suspended in 50 mM Tris-HCl buffer (pH=7.4), homogenized on ice by a homogenizer for 20 seconds 10 times, and centrifuged at 4° C., 1000 g for 10 min. The supernatant was collected, and the above steps were repeated. The supernatant was centrifuged (33800 g; centrifuge purchased from Thermo, rotor model: A27-8×50) at 4° C. for 60 min, and the precipitate was resuspended in Tris buffer (50 mM Tris-HCl, 10 mM MgCl2, 0.5 mM EDTA, 10% glycerol). The precipitate was the cell membrane. Protein content was determined by BCA (Bicinchoninic Acid) method (BCA kit from Pierce (Annoron)). The cell membrane was prepared into 1 ml aliquot and stored at −80° C.
Radioligand competition binding assay: the assay was carried out in a 200 μL system (96-well plate from Agilent) with 100 μL of cell membrane. The concentration of ^3H-flunitazepam (from PerkinElmer, lot: NET567250 UC) was 1 nM and the concentration of test compound was in the range 1×10^−5-10^−6 M. Flumazenil (from Tocris; lot: 1318) was used as a control. 1 μL of 2 mM flumazenil (final concentration 10 μM) was added to the Low signal control well (Low control, LC) and 1 μL of DMSO (from Sigma aldrich, lot: 472301) was added to the High signal control well (High control, HC). The final target membrane protein concentration was 5 μg/well. All test compound sample stocks were 10 mM DMSO solutions. The working concentration of the samples is to dilute all samples with DMSO to 0.2 mM, and then perform 4-fold continuous gradient dilution for a total of 8 concentration gradients. The 96-well plate was sealed with a plate sealing membrane and then incubated on a shaker at room temperature for 1 hour. Meanwhile, GF/C filter plate was soaked with a plate soaking buffer (0.3% PEI, polyethyleneimine, purchased from Sigma aldrich, model: P314, stored at 4° C.) for at least 0.5 hours. After completion of binding incubation, the cells were collected with a cell collector onto the GF/C filter plate and washed four times with a plate washing buffer (50 mM Tris-HCl, pH 7.4, stored at 4° C.). […]

α5-GABAA receptor = α5-GABAA receptor (Homo sapiens (Human), UniProt P18507+P31644); assay: Whole-cell patch clamp electrophysiology, inverse regulation activity in α5β3γ2-HEK293 cells; assay type: cell-based; conditions: compound 100 nM; GABA 0.05-0.06 μM (about EC7-8); clamped at −60 mV; read-out: Inverse regulation efficiency to α5-GABAA receptor
Description: α, β and γ subunits are essential for the formation of a complete functional GABAA receptor. […] The specific subunit protein sequences are as follows: α5 subunit (protein sequence can be found in GenBank accession number: NM_000810.3); α2 subunit (protein sequence can be found in GenBank accession number: NM_000807.4); β3 subunit (protein sequence can be found in GenBank accession number: NM_000814.5); γ2 subunit (protein sequence can be found in GenBank accession number: NM_000816.3).
as §1
The inverse regulation activity of the test drugs on α5-GABAA receptor was detected by an electrophysiological method. The specific method was as follows:
Compound concentration setting: the final concentration of the compounds used for compound screening was 100 nM. GABA concentration was 0.05-0.06 μM (about EC7-8). […] The extracellular fluid (ECS) ingredients for electrophysiology were as follows: 150 mM NaCl, 5 mM KCl, 2.5 mM CaCl2, 1 mM MgCl2, 10 mM HEPES and 10 mM glucose (pH 7.4); the electrode internal solution (ICS) formula for electrophysiology was as follows: 140 mM CsCl, 11 mM EGTA, 10 mM HEPES, 2 mM CaCl2, 1 mM MgCl2, 4 mM MgATP, 2 mM TEA (pH 7.3). The above reagents were all purchased from Sigma aldrich. GABA (γ-aminobutyric acid, from sigma aldrich, lot: A5385) powder was prepared into a stock solution with pure water and then diluted in ECS. The compound was first prepared into a 4 mM stock solution with DMSO, and then gradually diluted in corresponding concentrations of GABA-ECS. The solutions were all prepared fresh prior to electrophysiological testing.
Electrophysiological signal acquisition were performed by using EPC 10 amplifier and PatchMaster software (HEKA) or Axon 700 B amplifier and Clampex software (AXON). The recording electrode was made by drawing borosilicate glass (purchased from sutter), and has an electrode resistance of 4˜6 MΩ. Extracellular administration was carried out using ALA-VC-8PG (purchased from ALA, USA) system. A single independently grown cell was selected, and lysis was performed after the glass electrode and the cell forming a good seal, to form a whole cell mode. With the cellular membrane potential clamped at −60 mV, recording was carried out in the Gap-free mode. For the test, extracellular fluid was first applied extracellularly for about 20 seconds. After baseline (Iprebaseline) was stabilized, the extracellular fluid was switched to GABA-ECS. At this time, the current (Igaba) caused by GABA can be detected. At about 20-40 seconds, after the current stabilized, the extracellular fluid was switched to a mixed solution of the compound and GABA-ECS, until the current (Itreatment) caused by both the compound and GABA can be detected. Finally, the solution was switched to the extracellular fluid and the test was terminated after recording for 20-40 seconds.
The experimental results were analyzed using PatchMaster v2x90.1 or PatchMaster v2x90.3 software (EPC 10 amplifier) and Clampex10.6 software (Axon700B amplifier). The current value of each stage was calculated according to the average value of the stabilized current under the corresponding conditions. We defined the control current as Igaba−Iprebaseline, and the current after compound treatment as Itreatment−Iprebaseline. The inverse regulation activity of the compounds is expressed as a percentage and is calculated according to the following formula: Inverse regulation efficiency=[(Itreatment−Igaba)/(Igaba−Iprebaseline)]×100%.

pKi [1] | inhibition at 0.1 µM (α5-GABAA receptor) [%] | SMILES
7.90 | 43 | CCN1CCn2c(nnc2-c2ccc(OCc3c(-c4ccc(F)cc4)noc3C)nc2)C1=O [Compound 13, 7-ethyl-3-(6-((3-(4-fluorophenyl)-5-methylisoxazol-4-yl)methoxy)pyridin-3-yl)-6,7-dihydro-[1,2,4]triazolo[4,3-a]pyrazin-8(5H)-one]
9.11 | 45 | Cc1onc(-c2ccc(F)cc2)c1COc1ccc(-c2nnc3n2CCS(=O)(=O)C3)nn1 [Compound 29, 3-(6-((3-(4-fluorophenyl)-5-methylisoxazol-4-yl)methoxy)pyridazin-3-yl)-5,6-dihydro-8H-[1,2,4]triazolo[3,4-c][1,4]thiazine 7,7-dioxide]
8.60 | 49 | Cc1onc(-c2ccc(F)cc2)c1COc1ccc(-c2nnc3n2CCN(C)C3=O)nn1 [Compound 14, 3-(6-((3-(4-fluorophenyl)-5-methylisoxazol-4-yl)methoxy)pyridazin-3-yl)-7-methyl-6,7-dihydro-[1,2,4]triazolo[4,3-a]pyrazin-8(5H)-one]
9.27 | 50 | Cc1onc(-c2ccc(F)cc2)c1COc1ccc(-c2nnc3n2CCC3)nn1 [Compound 22, 4-(((6-(6,7-dihydro-5H-pyrrolo[2,1-c][1,2,4]triazol-3-yl)pyridazin-3-yl)oxy)methyl)-3-(4-fluorophenyl)-5-methylisoxazole]
9.22 | 45 | Cc1onc(-c2ccc(F)cc2)c1COc1ccc(-c2nnn3c2COCC3)nn1 [Compound 11, 3-(6-((3-(4-fluorophenyl)-5-methylisoxazol-4-yl)methoxy)pyridazin-3-yl)-6,7-dihydro-4H-[1,2,3]triazolo[5,1-c][1,4]oxazine]
8.61 | 39 | Cc1onc(-c2ccc(F)cc2)c1COc1ccc(N2CCn3c(C)nnc3C2)nn1 [Compound 34, 3-(4-fluorophenyl)-5-methyl-4-(((6-(3-methyl-5,6-dihydro-[1,2,4]triazolo[4,3-a]pyrazin-7(8H)-yl)pyridazin-3-yl)oxy)methyl)isoxazole]
7.48 | 42 | Cc1onc(-c2ccc(F)cc2)c1COc1ccc(-c2ncc3n2CCOC3)cn1 [Compound 28, 3-(6-((3-(4-fluorophenyl)-5-methylisoxazol-4-yl)methoxy)pyridin-3-yl)-5,6-dihydro-8H-imidazo[5,1-c][1,4]oxazine]
7.66 | 50 | Cc1onc(-c2ccc(F)cc2)c1COc1ccc(-c2nnc3n2CCCO3)cn1 [Compound 25, 3-(6-((3-(4-fluorophenyl)-5-methylisoxazol-4-yl)methoxy)pyridin-3-yl)-6,7-dihydro-5H-[1,2,4]triazolo[3,4-b][1,3]oxazine]
6.99 | 16 | Cc1onc(-c2ccc(F)cc2)c1COc1cnc(N2CCN3CCNC(=O)[C@@H]3C2)cn1 [Compound 6, (S)-8-(5-((3-(4-fluorophenyl)-5-methylisoxazol-4-yl)methoxy)pyrazin-2-yl) hexahydro-2H-pyrazino[1,2-a]pyrazin-1 (6H)-one]
8.20 | 44 | Cc1onc(-c2ccc(F)cc2)c1COc1ccc(-c2cc3n(c(=O)n2)CC24CC(CN32)C4)cn1 [Compound 39, 3-(6-((3-(4-fluorophenyl)-5-methylisoxazol-4-yl)methoxy)pyridin-3-yl)-7,8-dihydro-1H,6H,9H-7,8a-methanopyrrolo[1′,2′:3,4]imidazo[1,2-c]pyrimidin-1-one]
8.92 | 38 | Cc1onc(-c2ccc(F)cc2)c1COc1ccc(-c2nnn3c2COCC3)cn1 [Compound 1, 3-(6-((3-(4-fluorophenyl)-5-methylisoxazol-4-yl)methoxy)pyridin-3-yl)-6,7-dihydro-4H-[1,2,3]triazolo[5,1-c][1,4]oxazine]
